Experimental data reported in patent US20050222173A1, “Triazolopyrimidines” (priority 2002, published 2005).

tested on: Podosphaera leucotricha; experiment: Podosphaera test (apple)/protective; format: in vivo; conditions: Podosphaera leucotricha, 240 h, protective, application rate 100 g/ha, evaluation 10 days after inoculation, read-out: Efficacy in %
Protocol: Podosphaera Test (Apple)/Protective [table] […] To test for protective activity, young plants are sprayed with the preparation of active compound at the stated application rate. After the spray coating has dried on, the plants are inoculated with an aqueous spore suspension of the apple mildew pathogen Podosphaera leucotricha. The plants are then placed in a greenhouse at about 23° C. and a relative atmospheric humidity of about 70%.

Compound	pest or weed control at 100 g/ha
CCC(C)CNc1c(-c2c(F)cc(F)cc2F)c(Cl)nc2nc(Br)nn12 (stereo not shown) [drawing 36]	94%
C[C@@H](Nc1c(-c2c(F)cc(F)cc2F)c(Cl)nc2nc(Cl)nn12)C(F)(F)F [drawing 33]	100%
Fc1cccc(Cl)c1-c1c(Cl)nc2nc(Cl)nn2c1NCC1CC1 [drawing 46]	100%
CC(C)Nc1c(-c2ccccc2Cl)c(Cl)nc2nc(Br)nn12 [drawing 34]	87%
CC(C)CNc1c(-c2c(F)cccc2Cl)c(Cl)nc2nc(Cl)nn12 [drawing 45]	100%
Fc1ccc(-c2c(Cl)nc3nc(Cl)nn3c2N[C@@H](Cl)C(F)(F)F)c(F)c1 [drawing 42]	100%
C=CCN(CC)c1c(-c2c(F)cccc2Cl)c(Cl)nc2nc(Cl)nn12 [drawing 44]	95%
C[C@@H](Nc1c(-c2ccccc2Cl)c(Cl)nc2nc(Cl)nn12)C(F)(F)F [drawing 32]	100%
COc1nc2nc(Cl)c(-c3c(F)cc(F)cc3OC)c(NC(C)C(F)(F)F)n2n1 (stereo not shown) [drawing 49]	83%
C[C@H](Nc1c(-c2c(F)cc(F)cc2F)c(Cl)nc2nc(Br)nn12)C(F)(F)F [drawing 38]	100%
Fc1cccc(Cl)c1-c1c(Cl)nc2nc(Cl)nn2c1N1CCCC1 [drawing 43]	93%
CC(C)CNc1c(-c2ccc(F)cc2F)c(Cl)nc2nc(Cl)nn12 [drawing 40]	100%
C[C@H](Nc1c(-c2c(F)cccc2Cl)c(Cl)nc2nc(Cl)nn12)C(F)(F)F [drawing 41]	100%

same assay, conditions: Podosphaera leucotricha, 240 h, protective, application rate 199 g/ha, evaluation 10 days after inoculation, read-out: Efficacy in %

Compound	pest or weed control at 199 g/ha
CC1CCCN(c2c(-c3c(F)cc(F)cc3F)c(Cl)nc3nc(Cl)nn23)C1 (stereo not shown) [drawing 39]	94%

tested on: not listed separately; experiment: logP determination by HPLC (EEC Directive 79/831 Annex V. A8); conditions: HPLC, gradient method, acetonitrile/0.1% aqueous phosphoric acid

log.P	Compound
3.79	Fc1ccc(-c2c(Cl)nc3nc(Cl)nn3c2NC2CCCC2)c(F)c1 [Example 103]
4.19	CC1=CCCN(c2c(-c3c(F)cc(F)cc3F)c(Cl)nc3nc(Br)nn23)C1 [Example 72]
3.14	CN(C)c1c(-c2c(F)cc(F)cc2F)c(Cl)nc2nc(Br)nn12 [Example 59]
2.23	OCCNc1c(-c2c(F)cc(F)cc2F)c(Cl)nc2nc(Cl)nn12 [Example 24]
3.3	C=C(C)CNc1c(-c2ccc(F)cc2F)c(Cl)nc2nc(Cl)nn12 [Example 108]
3.74	CC(C)CNc1c(-c2c(F)cccc2Cl)c(Cl)nc2nc(Cl)nn12 [Example 139]
4.04	CCC(C)CNc1c(-c2c(F)cc(F)cc2F)c(Cl)nc2nc(Cl)nn12 (stereo not shown) [Example 69]
3.99	CC(C)(C)Nc1c(-c2ccccc2Cl)c(Cl)nc2nc(Cl)nn12 [Example 22]
3.59	Clc1nc2nc(Cl)c(-c3ccccc3Cl)c(N3CCCC3)n2n1 [Example 30]
2.71	CN1CCN(c2c(-c3c(F)cc(F)cc3F)c(Cl)nc3nc(Cl)nn23)CC1 [Example 84]
3.79	CCC(C)Nc1c(-c2ccccc2Cl)c(Cl)nc2nc(Cl)nn12 (stereo not shown) [Example 70]
3.72	CC1CN(c2c(-c3c(F)cc(F)cc3F)c(Cl)nc3nc(Cl)nn23)CC(C)O1 (stereo not shown) [Example 6]
3.94	Fc1cc(F)c(-c2c(Cl)nc3nc(Br)nn3c2NC2CCCC2)c(F)c1 [Example 60]
3.9	Fc1cc(F)c(-c2c(Cl)nc3nc(Cl)nn3c2NC2CCCC2)c(F)c1 [Example 11]
3.07	CCNc1c(-c2ccccc2Cl)c(Cl)nc2nc(Cl)nn12 [Example 29]
4.06	Fc1cc(F)c(-c2c(Cl)nc3nc(Cl)nn3c2N2CCCCC2)c(F)c1 [Example 89]
3.98	CCN(Cc1ccco1)c1c(-c2ccc(F)cc2F)c(Cl)nc2nc(Cl)nn12 [Example 120]
4.01	CC(C)C(C)Nc1c(-c2c(F)cc(F)cc2F)c(Cl)nc2nc(Cl)nn12 (stereo not shown) [Example 171]
4.03	Clc1nc2nc(Cl)c(-c3ccccc3Cl)c(NC3CCCC3)n2n1 [Example 34]
3.01	Fc1ccc(-c2c(Cl)nc3nc(Cl)nn3c2NC2CC2)c(F)c1 [Example 105]
3.99	CCN(CC)c1c(-c2ccccc2Cl)c(Cl)nc2nc(Cl)nn12 [Example 31]
3.32	COCCN(C)c1c(-c2c(F)cccc2Cl)c(Cl)nc2nc(Cl)nn12 [Example 148]
2.74	Fc1cc(F)c(-c2c(Cl)nc3nc(Cl)nn3c2NN2CCOCC2)c(F)c1 [Example 16]

log.P	Compound
3.37	C=C(C)CNc1c(-c2c(F)cc(F)cc2F)c(Cl)nc2nc(Cl)nn12 [Example 86]
3.9	CCN(CC)c1c(-c2c(F)cc(F)cc2F)c(Cl)nc2nc(Br)nn12 [Example 53]
3.9	CC(C)(C)Nc1c(-c2c(F)cc(F)cc2F)c(Cl)nc2nc(Br)nn12 [Example 58]
4.18	CC(C)C(C)Nc1c(-c2ccccc2Cl)c(Cl)nc2nc(Br)nn12 (stereo not shown) [Example 170]
3.74	CCN(CC)c1c(-c2ccc(F)cc2F)c(Cl)nc2nc(Cl)nn12 [Example 125]
4.29	CCCN(CC1CCCO1)c1c(-c2ccc(F)cc2F)c(Cl)nc2nc(Cl)nn12 (stereo not shown) [Example 127]
4.22	FC(F)(F)C1CCN(c2c(-c3ccccc3Cl)c(Cl)nc3nc(Cl)nn23)CC1 [Example 81]
4.06	CCCN(CCOC)c1c(-c2c(F)cccc2Cl)c(Cl)nc2nc(Cl)nn12 [Example 135]
2.18	OCCNc1c(-c2ccccc2Cl)c(Cl)nc2nc(Cl)nn12 [Example 21]
4.31	CC(C)CC(C)Nc1c(-c2ccc(F)cc2F)c(Cl)nc2nc(Cl)nn12 (stereo not shown) [Example 109]
3.18	Clc1nc2nc(Cl)c(-c3ccccc3Cl)c(NC3CC3)n2n1 [Example 37]
4.05	CCC(C)CNc1c(-c2c(F)cc(F)cc2F)c(Cl)nc2nc(Br)nn12 (stereo not shown) [Example 73]
3.59	C[C@H](Nc1c(-c2c(F)cc(F)cc2F)c(Cl)nc2nc(Br)nn12)C(F)(F)F [Example 99]
4.18	Clc1nc2nc(Cl)c(-c3ccccc3Cl)c(N3CCCCC3)n2n1 [Example 32]
3.28	CC(C)(Nc1c(-c2c(F)cc(F)cc2F)c(Cl)nc2nc(Cl)nn12)C(F)(F)F [Example 66]
4.63	CCC1=CCN(c2c(-c3c(F)cc(F)cc3F)c(Cl)nc3nc(Cl)nn23)CC1 [Example 91]
3.37	CCCNc1c(-c2c(F)cc(F)cc2F)c(Cl)nc2nc(Cl)nn12 [Example 10]
2.55	COC(=O)N(C)Nc1c(-c2ccccc2Cl)c(Cl)nc2nc(Cl)nn12 [Example 41]
3.19	Fc1ccc(-c2c(Cl)nc3nc(Cl)nn3c2NCC(F)(F)F)c(F)c1 [Example 106]
3.67	CC(C)CN(N)c1c(-c2c(F)cc(F)cc2F)c(Cl)nc2nc(Cl)nn12 [Example 48]
4.5	CCCCN(CC)c1c(-c2ccc(F)cc2F)c(Cl)nc2nc(Cl)nn12 [Example 124]
4.16	CC(C)C(C)Nc1c(-c2ccccc2Cl)c(Cl)nc2nc(Cl)nn12 (stereo not shown) [Example 175]

Compound	log.P
C[C@H](Nc1c(-c2c(F)cccc2Cl)c(Cl)nc2nc(Cl)nn12)C(F)(F)F [Example 100]	3.6
CC(NNc1c(-c2ccccc2Cl)c(Cl)nc2nc(Cl)nn12)C1CC1 (stereo not shown) [Example 17]	3.55
